Experimental findings from patent US11780830B2, “Triazolone derivatives or salts thereof and pharmaceutical compositions comprising the same” (YUHAN CORPORATION, priority 2018, dated 2023) are described below.

Assay type in all cases: biochemical
One assay deals with T1, recombinant human VAP-1 (Homo sapiens, UniProt Q16853).
T1 construct: purchased R&D systems
T1 sequence (Q16853 1-763): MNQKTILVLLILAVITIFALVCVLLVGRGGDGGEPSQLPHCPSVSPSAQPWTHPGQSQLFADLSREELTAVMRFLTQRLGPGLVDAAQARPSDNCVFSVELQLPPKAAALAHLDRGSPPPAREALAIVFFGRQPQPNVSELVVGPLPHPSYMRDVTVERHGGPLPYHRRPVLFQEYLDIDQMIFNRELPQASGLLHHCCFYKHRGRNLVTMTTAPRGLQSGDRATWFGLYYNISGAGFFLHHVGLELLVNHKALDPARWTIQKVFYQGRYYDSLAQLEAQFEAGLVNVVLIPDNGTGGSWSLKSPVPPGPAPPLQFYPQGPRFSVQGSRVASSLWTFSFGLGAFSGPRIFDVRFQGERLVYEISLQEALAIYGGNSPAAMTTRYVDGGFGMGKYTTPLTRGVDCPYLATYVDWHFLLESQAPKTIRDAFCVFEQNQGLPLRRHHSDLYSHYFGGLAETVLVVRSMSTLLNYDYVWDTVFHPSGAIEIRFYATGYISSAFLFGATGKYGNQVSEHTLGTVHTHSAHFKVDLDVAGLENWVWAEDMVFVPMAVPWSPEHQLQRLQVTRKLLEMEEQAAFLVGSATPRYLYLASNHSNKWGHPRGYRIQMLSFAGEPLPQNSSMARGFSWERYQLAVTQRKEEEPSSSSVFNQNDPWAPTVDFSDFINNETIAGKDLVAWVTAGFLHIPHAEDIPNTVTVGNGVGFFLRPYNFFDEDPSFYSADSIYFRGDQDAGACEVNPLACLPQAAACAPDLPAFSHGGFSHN
In words: Activity on recombinant human VAP-1, HRP-coupled Amplex Red hydrogen peroxide assay. The settings on record: substrate 1 mM benzylamine; compound incubated with enzyme at 37° C. for 30 minutes; pH 7.4; read-out: Inhibitory Activity (IC50, nM) human VAP-1. The essentials:
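8-point 1:3 dilutions, final DMSO <1%; 30 min enzyme preincubation, 37 °C, pH 7.4 phosphate. Start: 1 mM benzylamine + 200 uM Amplex Red + 1 U/mL HRP. Read ex544/em590 over 1-2 h; % rate decrease vs DMSO control, 4-parameter logistic IC50.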

For assay [1], the target named is T2, recombinant human MAO-A (monoamine oxidase-A) (Homo sapiens, UniProt P21397).
T2 construct: purchased Sigma-Aldrich
T2 sequence (P21397 1-527): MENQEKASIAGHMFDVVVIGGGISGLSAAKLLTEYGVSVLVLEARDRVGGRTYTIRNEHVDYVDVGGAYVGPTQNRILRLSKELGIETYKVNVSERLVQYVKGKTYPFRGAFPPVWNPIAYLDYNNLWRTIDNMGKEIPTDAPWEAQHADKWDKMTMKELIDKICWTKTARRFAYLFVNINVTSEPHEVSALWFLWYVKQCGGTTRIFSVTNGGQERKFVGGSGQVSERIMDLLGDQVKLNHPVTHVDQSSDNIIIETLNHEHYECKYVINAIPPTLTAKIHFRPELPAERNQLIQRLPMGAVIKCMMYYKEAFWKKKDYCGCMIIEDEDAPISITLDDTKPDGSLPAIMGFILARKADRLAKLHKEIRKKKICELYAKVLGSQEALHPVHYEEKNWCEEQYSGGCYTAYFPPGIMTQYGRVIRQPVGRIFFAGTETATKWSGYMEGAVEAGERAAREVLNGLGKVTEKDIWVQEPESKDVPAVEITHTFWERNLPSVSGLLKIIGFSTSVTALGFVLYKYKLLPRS
In words: Activity on recombinant human MAO-A, method similar to the VAP-1 assay. The settings on record: substrate 0.5 mM tyramine; read-out: Inhibitory Activity (IC50, nM) MAO-A. The essentials:
(§1)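 HRP-coupled Amplex Red H2O2 assay, 50 mM sodium phosphate pH 7.4; compounds (8-point 1:3 series, final DMSO <1%) preincubated with enzyme 30 min at 37° C, then 200 uM Amplex Red, 1 U/mL HRP and substrate (MAO-A 0.5 mM tyramine; MAO-B 1 mM benzylamine) added. Resorufin fluorescence (ex 544/em 590 nm) read over 1-2 h; IC50 from four-parameter logistic fit.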

For assay [2], the target named is T3, recombinant human MAO-B (monoamine oxidase-B) (Homo sapiens, UniProt P27338).
T3 construct: purchased Sigma-Aldrich
T3 sequence (P27338 1-520): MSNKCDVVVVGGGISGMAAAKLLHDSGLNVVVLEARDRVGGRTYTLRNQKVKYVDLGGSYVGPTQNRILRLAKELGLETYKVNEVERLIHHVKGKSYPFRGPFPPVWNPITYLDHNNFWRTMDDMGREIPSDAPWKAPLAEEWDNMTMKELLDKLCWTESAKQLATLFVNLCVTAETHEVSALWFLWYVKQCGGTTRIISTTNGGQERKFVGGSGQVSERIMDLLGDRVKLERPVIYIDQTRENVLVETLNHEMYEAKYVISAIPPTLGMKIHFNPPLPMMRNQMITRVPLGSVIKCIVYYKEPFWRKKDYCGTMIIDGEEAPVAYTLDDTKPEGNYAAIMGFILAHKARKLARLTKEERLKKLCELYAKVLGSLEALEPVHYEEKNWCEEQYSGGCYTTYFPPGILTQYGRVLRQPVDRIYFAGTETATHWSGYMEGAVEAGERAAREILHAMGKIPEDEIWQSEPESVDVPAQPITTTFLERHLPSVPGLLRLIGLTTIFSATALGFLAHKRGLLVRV
The assay can be described thus: Activity on recombinant human MAO-B, method similar to the VAP-1 assay. Conditions: substrate 1 mM benzylamine; read-out: Inhibitory Activity (IC50, nM) MAO-B. Summed up: as §1

The target of assay [3] is T4, recombinant human DAO (diamine oxidase) (Homo sapiens, UniProt P19801).
T4 construct: purchased R&D systems
T4 sequence (P19801 20-751): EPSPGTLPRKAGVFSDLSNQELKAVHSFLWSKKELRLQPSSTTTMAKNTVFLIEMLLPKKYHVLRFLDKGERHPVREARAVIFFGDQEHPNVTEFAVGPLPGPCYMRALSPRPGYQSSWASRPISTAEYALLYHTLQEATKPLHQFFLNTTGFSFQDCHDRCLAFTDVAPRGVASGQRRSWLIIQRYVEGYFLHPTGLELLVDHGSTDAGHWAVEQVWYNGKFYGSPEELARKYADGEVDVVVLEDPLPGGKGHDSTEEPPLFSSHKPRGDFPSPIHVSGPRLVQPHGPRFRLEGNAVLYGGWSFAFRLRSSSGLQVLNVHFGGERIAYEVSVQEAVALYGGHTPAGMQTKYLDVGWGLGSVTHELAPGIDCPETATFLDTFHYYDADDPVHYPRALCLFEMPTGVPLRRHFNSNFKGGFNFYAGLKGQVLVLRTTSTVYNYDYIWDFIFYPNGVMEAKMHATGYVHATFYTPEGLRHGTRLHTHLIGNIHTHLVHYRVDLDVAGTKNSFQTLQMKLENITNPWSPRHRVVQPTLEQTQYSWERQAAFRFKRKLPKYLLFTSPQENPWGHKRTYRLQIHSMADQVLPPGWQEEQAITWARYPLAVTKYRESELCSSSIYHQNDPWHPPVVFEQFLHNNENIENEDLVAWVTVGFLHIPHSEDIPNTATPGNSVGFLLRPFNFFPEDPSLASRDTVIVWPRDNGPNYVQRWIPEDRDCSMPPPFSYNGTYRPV
In words: Activity on recombinant human DAO, method similar to the VAP-1 assay. Conditions: substrate 1 mM putrescine; read-out: Inhibitory Activity (IC50, nM) DAO. Summed up: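 Inhibition of recombinant human diamine oxidase (DAO, R&D systems) was assessed by the same approach as the VAP-1 assay, using 1 mM putrescine as substrate. Hydrogen peroxide formed was detected through an HRP-coupled Amplex Red reaction yielding fluorescent resorufin, read at 544 nm excitation and 590 nm emission. IC50 values came from four-parameter logistic fitting in GraphPad Prism.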

Structures are written as SMILES. Where a name gives a salt, the structure may show the parent alone.

For the compound `NC/C(=C\F)Cn1ncn(Cc2ccc(-c3cnc4c(c3)COC(=O)N4)s2)c1=O` [Example 149, 6-[5-({1-[(2E)-2-(aminomethyl)-3-fluoroprop-2-en-1-yl]-5-oxo-1,5-dihydro-4H-1,2,4-triazol-4-yl}methyl)thiophen-2-yl]-1,4-dihydro-2H-pyrido[2,3-d][1,3]oxazin-2-one], the IC50 at recombinant human VAP-1 is 0.4 nM; in assay [1] it was more than 100000 nM; in assay [2], 4500 nM; in assay [3] it was 470 nM.

With `CN(C)C(=O)c1cccc(-c2ccc(Cn3cnn(C/C(=C/F)CN)c3=O)s2)c1` [Example 182, 3-[5-({1-[(2E)-2-(aminomethyl)-3-fluoroprop-2-en-1-yl]-5-oxo-1,5-dihydro-4H-1,2,4-triazol-4-yl}methyl)thiophen-2-yl]-N,N-dimethylbenzamide], the IC50 is 3.7 nM at recombinant human VAP-1, more than 100000 nM in assay [1], 6600 nM in assay [2] and 3600 nM in assay [3].

Turning to `NC/C(=C\F)Cn1ncn(Cc2ccc(C#Cc3cnc4c(c3)NCCO4)s2)c1=O` [Example 135, 2-[(E)-2-(aminomethyl)-3-fluoro-allyl]-4-[[5-[2-(2,3-dihydro-1H-pyrido[2,3-b][1,4]oxazin-7-yl)ethynyl]-2-thienyl]methyl]-1,2,4-triazol-3-one], the concentration for half-maximal inhibition (IC50) at recombinant human VAP-1 was 1.1 nM; in assay [1], more than 100000 nM; in assay [2], 750 nM; in assay [3] it was 1100 nM.

Take `NC/C(=C\F)Cn1ncn(Cc2ccc(Cc3ccc(OC(F)(F)F)cc3)s2)c1=O` [Example 168, 2-[(2E)-2-(aminomethyl)-3-fluoroprop-2-en-1-yl]-4-({5-[4-(trifluoromethoxy)benzyl]thiophen-2-yl}methyl)-2,4-dihydro-3H-1,2,4-triazol-3-one]: the half-inhibitory concentration (IC50) was 12 nM at recombinant human VAP-1, more than 100000 nM in assay [1], 340 nM in assay [2] and 4500 nM in assay [3].

As to `COc1cc(-c2ccc(Cn3cnn(C/C(=C/F)CN)c3=O)s2)cc(OC)c1OC` [Example 17, 2-[(2E)-2-(aminomethyl)-3-fluoroprop-2-en-1-yl]-4-[5-(3,4,5-trimethoxyphenyl)thiophen-2-yl]methyl-2,4-dihydro-3H-1,2,4-triazol-3-one hydrochloride], the IC50 on recombinant human VAP-1 is 1.2 nM; in assay [1], more than 100000 nM; in assay [2], 1000 nM; in assay [3], 620 nM.

Regarding `NC/C(=C\F)Cn1ncn(Cc2ccc(-c3ccc(=O)n(Cc4ccccc4)c3)s2)c1=O` [Example 191, 5-[5-({1-[(2E)-2-(aminomethyl)-3-fluoroprop-2-en-1-yl]-5-oxo-1,5-dihydro-4H-1,2,4-triazol-4-yl}methyl)thiophen-2-yl]-1-benzylpyridin-2(1H)-one], the IC50 is 1.1 nM at recombinant human VAP-1, more than 100000 nM in assay [1], 1500 nM in assay [2] and 130 nM in assay [3].

As to `Cc1cc(-c2ccc(CCn3cnn(C/C(=C/F)CN)c3=O)s2)cc2c1NC(=O)CC2` [Example 218, 6-[5-(2-{1-[(2E)-2-(aminomethyl)-3-fluoroprop-2-en-1-yl]-5-oxo-1,5-dihydro-4H-1,2,4-triazol-4-yl}ethyl)thiophen-2-yl]-8-methyl-3,4-dihydroquinolin-2(1H)-one], the IC50 on recombinant human VAP-1 is 0.7 nM; in assay [1] it was more than 100000 nM; in assay [2], 76000 nM; in assay [3], 200 nM.

`NC/C(=C\F)Cn1ncn(Cc2ccc(-c3cc(F)c4[nH]c(=O)ccc4c3)s2)c1=O` [Example 82, 6-[5-(1-[(2E)-2-(aminomethyl)-3-fluoroprop-2-en-1-yl]-5-oxo-1,5-dihydro-4H-1,2,4-triazol-4-ylmethyl)thiophen-2-yl]-8-fluoroquinolin-2(1H)-one hydrochloride]: the IC50 on recombinant human VAP-1 was 0.1 nM; in assay [1], more than 100000 nM; in assay [2], 6300 nM; in assay [3], 300 nM.

On to `NC/C(=C\F)Cn1ncn(Cc2ccc(-c3ccc(=O)n(C4CC4)c3)s2)c1=O` [Example 195, 5-[5-({1-[(2E)-2-(aminomethyl)-3-fluoroprop-2-en-1-yl]-5-oxo-1,5-dihydro-4H-1,2,4-triazol-4-yl}methyl)thiophen-2-yl]-1-cyclopropylpyridin-2(1H)-one], for which the IC50 at recombinant human VAP-1 is 1.6 nM; in assay [1], more than 100000 nM; in assay [2] it was 2300 nM; in assay [3], 710 nM.

Regarding `NC/C(=C\F)Cn1ncn(Cc2ccc(-c3ccc(CN4CCOCC4)nc3)s2)c1=O` [Example 145, 2-[(2E)-2-(aminomethyl)-3-fluoroprop-2-en-1-yl]-4-({5-[6-(morpholin-4-ylmethyl)pyridin-3-yl]thiophen-2-yl}methyl)-2,4-dihydro-3H-1,2,4-triazol-3-one], the IC50 at recombinant human VAP-1 was 4.4 nM; in assay [1], more than 100000 nM; in assay [2], more than 100000 nM; in assay [3], 490 nM.
